Measurements published in ChEMBL document CHEMBL1201862, “PubChem BioAssay data set” (2004).
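Following 48 hours of exposure in 96-well plates, responses at five concentrations were used to interpolate endpoints linearly. The concentration for 50% growth inhibition is given as GI50.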 Active and inactive are the calls of the source. Cut-off read from the data, not from the text of the source: active = GI50 up to about 1.1 µM and inactive = higher.

Tests used:
Test in all cases: NCI-60 cell line screen, 48 h
786-0 = test system: 786-0
A498 = test system: A498
A549 = test system: A549
ACHN = test system: ACHN
BT-549 = test system: BT-549
CAKI-1 = test system: CAKI-1
CCRF-CEM = test system: CCRF-CEM
COLO 205 = test system: COLO 205
DU-145 = test system: DU-145
EKVX = test system: EKVX
HCC 2998 = test system: HCC 2998
HCT-116 = test system: HCT-116
HCT-15 = test system: HCT-15
HL-60 = test system: HL-60
HOP-62 = test system: HOP-62
HOP-92 = test system: HOP-92
HT-29 = test system: HT-29
Hs-578T = test system: Hs-578T
IGROV-1 = test system: IGROV-1
K562 = test system: K562
KM12 = test system: KM12
LOX IMVI = test system: LOX IMVI
M14 = test system: M14
MCF7 = test system: MCF7
MDA-MB-231 = test system: MDA-MB-231
MDA-MB-435 = test system: MDA-MB-435
MDA-N = test system: MDA-N
MOLT-4 = test system: MOLT-4
Malme-3M = test system: Malme-3M
NCI-H226 = test system: NCI-H226
NCI-H23 = test system: NCI-H23
NCI-H460 = test system: NCI-H460
NCI-H522 = test system: NCI-H522
NCI/ADR-RES = test system: NCI/ADR-RES
OVCAR-3 = test system: OVCAR-3
OVCAR-4 = test system: OVCAR-4
OVCAR-5 = test system: OVCAR-5
OVCAR-8 = test system: OVCAR-8
PC-3 = test system: PC-3
RPMI-8226 = test system: RPMI-8226
RXF 393 = test system: RXF 393
SF-268 = test system: SF-268
SF-295 = test system: SF-295
SK-MEL-28 = test system: SK-MEL-28
SK-MEL-2 = test system: SK-MEL-2
SK-MEL-5 = test system: SK-MEL-5
SK-OV-3 = test system: SK-OV-3
SN12C = test system: SN12C
SNB-19 = test system: SNB-19
SNB-75 = test system: SNB-75
SR = test system: SR
SW-620 = test system: SW-620
T47D = test system: T47D
TK-10 = test system: TK-10
U-251 = test system: U-251
UACC-257 = test system: UACC-257
UACC-62 = test system: UACC-62
UO-31 = test system: UO-31
SF-539 = test system: SF-539

Structure (SMILES): O=C1C=CC(=O)C(N(CCO)CCO)=C1.O=C1C=CC2(O)OCCN(CCO)C2=C1
- GI50 (786-0): > 100 µM (inactive)
- GI50 (A498): > 100 µM (inactive)
- GI50 (A549): > 100 µM (inactive)
- GI50 (ACHN): > 100 µM (inactive)
- GI50 (BT-549): > 100 µM (inactive)
- GI50 (CAKI-1): > 100 µM (inactive)
- GI50 (CCRF-CEM): > 100 µM (inactive)
- GI50 (COLO 205): > 100 µM (inactive)
- GI50 (DU-145): > 100 µM (inactive)
- GI50 (EKVX): > 100 µM (inactive)
- GI50 (HCC 2998): > 100 µM (inactive)
- GI50 (HCT-116): > 100 µM (inactive)
- GI50 (HCT-15): > 100 µM
- GI50 (HL-60): > 100 µM (inactive)
- GI50 (HOP-62): > 100 µM (inactive)
- GI50 (HOP-92): > 100 µM (inactive)
- GI50 (HT-29): > 100 µM (inactive)
- GI50 (Hs-578T): > 100 µM (inactive)
- GI50 (IGROV-1): > 100 µM (inactive)
- GI50 (K562): > 100 µM (inactive)
- GI50 (KM12): > 100 µM (inactive)
- GI50 (LOX IMVI): > 100 µM (inactive)
- GI50 (M14): > 100 µM (inactive)
- GI50 (MCF7): > 100 µM (inactive)
- GI50 (MDA-MB-231): > 100 µM (inactive)
- GI50 (MDA-MB-435): > 100 µM (inactive)
- GI50 (MDA-N): > 100 µM (inactive)
- GI50 (MOLT-4): > 100 µM (inactive)
- GI50 (Malme-3M): > 100 µM (inactive)
- GI50 (NCI-H226): > 100 µM (inactive)
- GI50 (NCI-H23): > 100 µM (inactive)
- GI50 (NCI-H460): > 100 µM (inactive)
- GI50 (NCI-H522): > 100 µM (inactive)
- GI50 (NCI/ADR-RES): > 100 µM (inactive)
- GI50 (OVCAR-3): > 100 µM (inactive)
- GI50 (OVCAR-4): > 100 µM (inactive)
- GI50 (OVCAR-5): > 100 µM (inactive)
- GI50 (OVCAR-8): > 100 µM (inactive)
- GI50 (PC-3): > 100 µM (inactive)
- GI50 (RPMI-8226): 91.6 µM (inactive)
- GI50 (RXF 393): > 100 µM (inactive)
- GI50 (SF-268): > 100 µM (inactive)
- GI50 (SF-295): > 100 µM (inactive)
- GI50 (SK-MEL-28): > 100 µM (inactive)
- GI50 (SK-MEL-2): > 100 µM (inactive)
- GI50 (SK-MEL-5): > 100 µM (inactive)
- GI50 (SK-OV-3): > 100 µM (inactive)
- GI50 (SN12C): > 100 µM (inactive)
- GI50 (SNB-19): > 100 µM (inactive)
- GI50 (SNB-75): > 100 µM (inactive)
- GI50 (SR): 34.8 µM (inactive)
- GI50 (SW-620): > 100 µM (inactive)
- GI50 (T47D): > 100 µM (inactive)
- GI50 (TK-10): > 100 µM (inactive)
- GI50 (U-251): > 100 µM (inactive)
- GI50 (UACC-257): > 100 µM (inactive)
- GI50 (UACC-62): > 100 µM (inactive)
- GI50 (UO-31): > 100 µM (inactive)

Structure (SMILES): COc1ccc(-c2cc(C3CC3)nc(SCC(=O)O)c2C#N)cc1
- GI50 (786-0): > 100 µM (inactive)
- GI50 (A498): > 100 µM (inactive)
- GI50 (A549): 44 µM (inactive)
- GI50 (ACHN): > 100 µM (inactive)
- GI50 (BT-549): > 100 µM (inactive)
- GI50 (CAKI-1): > 100 µM (inactive)
- GI50 (CCRF-CEM): 57.8 µM (inactive)
- GI50 (COLO 205): > 100 µM (inactive)
- GI50 (DU-145): 85.3 µM (inactive)
- GI50 (EKVX): > 100 µM (inactive)
- GI50 (HCC 2998): > 100 µM (inactive)
- GI50 (HCT-116): > 100 µM (inactive)
- GI50 (HCT-15): 65.8 µM
- GI50 (HL-60): 54.5 µM (inactive)
- GI50 (HOP-62): > 100 µM (inactive)
- GI50 (HOP-92): 82.6 µM (inactive)
- GI50 (HT-29): > 100 µM (inactive)
- GI50 (Hs-578T): 84.3 µM (inactive)
- GI50 (IGROV-1): > 100 µM (inactive)
- GI50 (K562): 64.3 µM (inactive)
- GI50 (KM12): > 100 µM (inactive)
- GI50 (LOX IMVI): 36.6 µM (inactive)
- GI50 (M14): > 100 µM (inactive)
- GI50 (MCF7): 94.4 µM (inactive)
- GI50 (MDA-MB-231): > 100 µM (inactive)
- GI50 (MDA-MB-435): > 100 µM (inactive)
- GI50 (MDA-N): > 100 µM (inactive)
- GI50 (MOLT-4): 60.3 µM (inactive)
- GI50 (NCI-H226): 82.6 µM (inactive)
- GI50 (NCI-H23): > 100 µM (inactive)
- GI50 (NCI-H460): 52.1 µM (inactive)
- GI50 (NCI-H522): 25.1 µM (inactive)
- GI50 (NCI/ADR-RES): > 100 µM (inactive)
- GI50 (OVCAR-3): 83.2 µM (inactive)
- GI50 (OVCAR-4): 79.8 µM (inactive)
- GI50 (OVCAR-5): > 100 µM (inactive)
- GI50 (OVCAR-8): > 100 µM (inactive)
- GI50 (PC-3): 79.8 µM (inactive)
- GI50 (RPMI-8226): 35.6 µM (inactive)
- GI50 (RXF 393): 62.8 µM (inactive)
- GI50 (SF-268): > 100 µM (inactive)
- GI50 (SF-295): 60.3 µM (inactive)
- GI50 (SF-539): > 100 µM (inactive)
- GI50 (SK-MEL-28): > 100 µM (inactive)
- GI50 (SK-MEL-2): > 100 µM (inactive)
- GI50 (SK-MEL-5): > 100 µM (inactive)
- GI50 (SK-OV-3): 56.2 µM (inactive)
- GI50 (SN12C): > 100 µM (inactive)
- GI50 (SNB-19): > 100 µM (inactive)
- GI50 (SNB-75): > 100 µM (inactive)
- GI50 (SR): 55.8 µM (inactive)
- GI50 (SW-620): > 100 µM (inactive)
- GI50 (T47D): > 100 µM (inactive)
- GI50 (TK-10): > 100 µM (inactive)
- GI50 (U-251): 58.9 µM (inactive)
- GI50 (UACC-257): > 100 µM (inactive)
- GI50 (UACC-62): > 100 µM (inactive)
- GI50 (UO-31): 1.85 µM (inactive)
